For assay [1], the system named is rat cortical neurons. Description: Neurite outgrowth in primary neuronal cultures assay. The format is cell-based. The following applies: 72h, vs DMSO control, 10 μM or less. The arrangement: key: A: Statistically significant mean increase as a percent of DMSO control at 10 μM or less; B: No statistically significant mean increase as a percent of DMSO control at 10 μM or less. From the text:
Neurite Outgrowth Assay. Neurite Outgrowth in Primary Neuronal Cultures Assay. Changes in the pattern of neurite outgrowth have been implicated in psychiatric and neurodegenerative disorders as well as traumatic injuries. The discovery of new compounds that can positively affect neuritogenesis are important for developing new therapeutics for neurological diseases. Measurement of neurite outgrowth of rat cortical neurons using an automated image-based assay was used to determine the neuroplastic effects of the compounds of the present disclosure. The neurite outgrowth assay was performed at Neurofit SAS (France) as described below.
Pregnant Wistar rats (Janvier; France) were used for the study. They were delivered 6 days before their use. Upon arrival at Neurofit animal facility, they were housed one per cage and maintained in a room with controlled temperature (21-22° C.) and a reversed light-dark cycle (12 h/12h; lights on: 17:30-05:30; lights off: 05:30-17:30) with food and water available ad libitum.
Female Wistar rats of 17 days gestation were killed by cervical dislocation and the fetuses were removed from the uterus. Their brains were placed in ice-cold medium of Leibovitz (L15, Gibco, Fisher bioblock, France). Cortices were dissected and meninges were carefully removed. The cortical neurons were dissociated by trypsinization for 30 min at 37° C. (trypsin-EDTA, Gibco) in presence of 0.1 mg/ml DNAse I (Roche, France). The reaction was stopped by addition of Dulbecco's Modified Eagle Medium (DMEM; Gibco) with 10% of fetal bovine serum (FBS; Gibco). The suspension was triturated with a 10-ml pipette and using a needle syringe 21G and centrifuged at 350×g for 10 min at room temperature. The pellet of dissociated cells was resuspended in a medium consisting of Neurobasal (Gibco) supplemented with 2% B27 supplement (Gibco), 0.5 mM L-Glutamine (Gibco), an antibiotic-antimicotic mixture. Viable cells were counted in a Neubauer cytometer using the trypan blue exclusion test (Sigma). Cells were seeded at a density of 10000 cells per well in 96-well plate (Costar) precoated with poly-L-lysine. Test compound at different concentrations were added to the cultures. Donepezil (positive control) was tested at 250 nM.
After 72h (3 days) of plating, cultures were fixed with paraformaldehyde in PBS (4%, Sigma) for 30 min at 4° C. Then, cells were successively permeabilized with 0.1% Triton X100 for 30 min, saturated with PBS containing 3% of BSA and were incubated 1 h with anti-beta III tubulin antibody (Sigma) at 1/10 000 in PBS containing 0.5% of BSA. Cells were washed three times with PBS containing 0.5% of BSA, and they were incubated 1 h with goat anti-mouse antibody coupled with AF488 (Invitrogen A11001) diluted at 1/1000 in PBS containing 0.5% of BSA. Finally, nuclei were staining with DAPI 1 mg/ml at 1/1000 in PBS containing 0.5% of BSA. After rinsing with PBS, the plate was filmed and neurite networks were examined and analyzed using High-Content Screening (CellInsight, Thermo Scientific). The average number of neurites per neuron and the average total length of neurites per neuron were the main parameters analyzed. Analysis of data was performed using analysis of variance (ANOVA). The Fisher's Protected Least Significant Difference test was used for multiple comparisons. A p value ≤0.05 was considered significant. The software used is StatView 5.0 from SAS Institut.

For assay [2], the target named is T1, 5-HT2A (Homo sapiens, UniProt P28223). Description: Serotonin 5-HT2A in vitro cellular IPOne agonism assay (HTRF). The assay is classed as cell-based. The arrangement: host or cells: CHO-K1. The conditions noted are these: CHO-K1 cells, 60 min. As for the experimental part: Serotonin 5-HT2AIn Vitro Cellular IPOne Agonism Assay. The 5-HT2AIPOne HTRF assay was performed at Epics Therapeutics S. A. (Belgium, FAST-0505I) using conventional methods. Briefly, CHO—K1 cells expressing human recombinant 5-HT2A receptor grown to mid-log phase in culture media without antibiotics were detached with PBS-EDTA, centrifuged, and resuspended in medium without antibiotics buffer. 20,000 cells were distributed in a 96 well plate and incubated overnight at 37° C. with 5% Co2.
T1 sequence (P28223 whole entry): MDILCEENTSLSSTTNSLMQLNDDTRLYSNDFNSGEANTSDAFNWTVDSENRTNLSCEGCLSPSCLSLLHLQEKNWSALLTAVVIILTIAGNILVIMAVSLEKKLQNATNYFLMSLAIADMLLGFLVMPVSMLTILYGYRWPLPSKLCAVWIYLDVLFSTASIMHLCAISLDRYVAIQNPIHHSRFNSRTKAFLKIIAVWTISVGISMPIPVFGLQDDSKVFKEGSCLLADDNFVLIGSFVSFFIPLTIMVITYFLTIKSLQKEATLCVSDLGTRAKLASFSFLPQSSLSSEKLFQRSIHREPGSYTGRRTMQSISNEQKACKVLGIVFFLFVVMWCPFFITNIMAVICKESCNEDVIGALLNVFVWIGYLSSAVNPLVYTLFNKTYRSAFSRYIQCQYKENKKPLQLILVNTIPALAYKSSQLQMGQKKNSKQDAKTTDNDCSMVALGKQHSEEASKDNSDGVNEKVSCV
For agonist testing, the medium was removed and 20 μl of assay buffer plus 20 μl of test compound or reference agonist were added in each well. The plate was incubated for 60 min. at 37° C. with 5% CO2.
(§1) After addition of the lysis buffer containing IP1-d2 and anti-IP1 cryptate detection reagents, plates were incubated 1-hour at room temperature, and fluorescence ratios were measured according to the manufacturer specification, with the HTRF kit.
On the technique in general: TR-FRET usually uses a lanthanide donor and a delayed reading to cut background.

Assay [3] addresses T1, 5-HT2A. Description: Serotonin 5-HT2A in vitro cellular IPOne antagonism assay (HTRF). The format is cell-based. Also noted: host or cells: CHO-K1. The following applies: CHO-K1 cells, reference agonist a-Me-5HT. The protocol:
Serotonin 5-HT2AIn Vitro Cellular IPOne Antagonism Assay. The 5-HT2AIPOne HTRF assay was performed at Epics Therapeutics S. A. (Belgium, FAST-0505I) in antagonism mode using conventional methods. Briefly, CHO—K1 cells expressing human recombinant 5-HT2A receptor grown to mid-log phase in culture media without antibiotics were detached with PBS-EDTA, centrifuged, and resuspended in medium without antibiotics buffer. 20,000 cells were distributed in a 96 well plate and incubated overnight at 37° C. with 5% Co2.
For antagonist testing, a reference agonist a-Me-5HT was added and fluorescence signal monitored for several minutes, followed by addition of 20 μl of assay buffer plus 20 μl of test compound or reference antagonist ketanserin, in each well. The plate was incubated for 60 min. at 37° C. with 5% CO2.
as §1

The target in assay [4] is T1, 5-HT2A. The assay can be described thus: Serotonin 5-HT2A in vitro radioligand binding competition assay ([3H]-DOI). Also noted: purchased Epics Therapeutics S. A. (Belgium), contract assay FAST-0505B; host or cells: membrane extracts. The conditions noted are these: [3H]-DOI competition, membrane extracts; read-out: 5HT2A R[…] ACTIVITY
The protocol:
Serotonin 5-HT2AIn Vitro Radioligand Binding Competition Assay. The 5-HT2A radioligand binding competition assay was performed at Epics Therapeutics S. A. (Belgium, FAST-0505B) using conventional methods. Briefly, competition binding is performed in duplicate in the wells of a 96 well plate (Master Block, Greiner, 786201) containing binding buffer (optimized for each receptor), membrane extracts (amount of protein/well optimized for each receptor), radiotracer [3H]-DOI (final concentration optimized for each receptor) and test compound. Nonspecific binding was determined by co-incubation with 200-fold excess of cold competitor. The samples were incubated in a final volume of 0.1 ml at a temperature and for a duration optimized for each receptor and then filtered over filter plates. Filters were washed six times with 0.5 ml of ice-cold washing buffer (optimized for each receptor) and 50 µl of Microscint 20 (Packard) were added in each well. The plates were incubated 15 min on an orbital shaker and then counted with a TopCount™ for 1 min/well.

As usually defined, the EC50 is the midpoint of the concentration-response curve.

Consider `COc1ccc2c3c([nH]c2c1)CCN1CCC[C@@H]1C3` [Compound 24, (R)-9-methoxy-1,2,3,5,6,7,12,12a-octahydropyrrolo[1′,2′:1,7]azepino[4,5-b]indole], for which, in assay [1], the “INCREASE IN NEURITE BRANCHING” value is “A”, the “INCREASE IN NEURITE LENGTH” value is listed as “A” and the “INCREASE IN NEURITE NUMBER” value is “A”. The EC50 in assay [2] is greater than 10 µM. Also, in assay [3], the IC50 is 0.101 to 1 µM. Also, the IC50 in assay [4] fell in the range of 1 to 10 µM.
Take `COc1ccc2c3c([nH]c2c1)C[C@H]1CCCN1CC3` [Compound 18, (R)-9-methoxy-1,2,3,5,6,11,12,12a-octahydropyrrolo[1′,2′:1,2]azepino[4,5-b]indole]: in assay [1], the “INCREASE IN NEURITE BRANCHING” value is “A”, the “INCREASE IN NEURITE LENGTH” value is “A” and the “INCREASE IN NEURITE NUMBER” value is recorded as “A”. For the same compound, the EC50 in assay [2] was greater than 10 µM. For the same compound, the IC50 in assay [3] was in the range of 0.101 to 1 µM. Further, in assay [4], the IC50 was greater than 10 µM.
Regarding `c1ccc2c3c([nH]c2c1)C[C@H]1CCCN1CC3` [Compound 20, (R)-1,2,3,5,6,11,12,12a-octahydropyrrolo[1′,2′:1,2]azepino[4,5-b]indole], in assay [1], the “INCREASE IN NEURITE BRANCHING” value is “A”, the “INCREASE IN NEURITE LENGTH” value was “A” and the “INCREASE IN NEURITE NUMBER” value was “A”. This compound also had an EC50 in assay [2] of 0.101 to 1 µM. In assay [3], this compound gave an IC50 of 1 to 10 µM. The IC50 in assay [4] fell in the range of 0.101 to 1 µM.
On to `c1ccc2c3c([nH]c2c1)CCN1CCC[C@@H]1C3` [Compound 22, (R)-1,2,3,5,6,7,12,12a-octahydropyrrolo[1′,2′:1,7]azepino[4,5-b]indole], for which, in assay [1], the “INCREASE IN NEURITE BRANCHING” value was “A”, the “INCREASE IN NEURITE LENGTH” value was “A” and the “INCREASE IN NEURITE NUMBER” value is recorded as “A”. Also, the EC50 in assay [2] fell in the range of 0.101 to 1 µM. The IC50 in assay [3] lay within 0.101 to 1 µM. Besides, the IC50 in assay [4] was in the range of 1 to 10 µM.
For the compound `FC(F)(F)Oc1ccc2c3c([nH]c2c1)CC1CCCN1CC3` (stereo not drawn) [Compound 13, 9-(trifluoromethoxy)-1,2,3,5,6,11,12,12a-octahydropyrrolo[1′,2′;1,2]azepino[4,5-b]indole], in assay [1], the “INCREASE IN NEURITE BRANCHING” value is given as “B”, the “INCREASE IN NEURITE LENGTH” value is recorded as “A” and the “INCREASE IN NEURITE NUMBER” value is listed as “B”. The compound also gave an EC50 in assay [2] greater than 10 µM. The IC50 in assay [3] is 0.101 to 1 µM. In addition, the IC50 in assay [4] lay within 1 to 10 µM.
As to `c1ccc2c3c([nH]c2c1)CCN1CCCC1C3` (stereo not drawn) [Compound 7, 1,2,3,5,6,7,12,12a-octahydropyrrolo[1′,2′:1,7]azepino[4,5-b]indole], in assay [1], the “INCREASE IN NEURITE BRANCHING” value was “A”, the “INCREASE IN NEURITE LENGTH” value is recorded as “A” and the “INCREASE IN NEURITE NUMBER” value was “A”. Also, in assay [2], the EC50 was in the range of 1 to 10 µM. The compound further registered an IC50 in assay [3] of 0.101 to 1 µM. Moreover, the IC50 in assay [4] lay within 0.101 to 1 µM.
Turning to `COc1cccc2[nH]c3c(c12)C[C@@H]1CCCN1CC3` [Compound 27, (S)-11-methoxy-1,2,3,5,6,7,12,12a-octahydropyrrolo[1′,2′:1,7]azepino[4,5-b]indole], in assay [1], the “INCREASE IN NEURITE BRANCHING” value is given as “A”, the “INCREASE IN NEURITE LENGTH” value is “A” and the “INCREASE IN NEURITE NUMBER” value is listed as “A”. The same compound showed a concentration for a half-maximal effect (EC50) in assay [2] of 0.01 to 0.1 µM. This compound showed an IC50 in assay [3] of 0.01 to 0.1 µM. The IC50 in assay [4] is 0.01 to 0.1 µM.
As to `FC(F)(F)c1cccc2[nH]c3c(c12)CC1CCCN1CC3` (stereo not drawn) [Compound 28, 11-(trifluoromethyl)-1,2,3,5,6,7,12,12a-octahydropyrrolo[1′,2′:1,7]azepino[4,5-b]indole], in assay [1], the “INCREASE IN NEURITE BRANCHING” value is listed as “A”, the “INCREASE IN NEURITE LENGTH” value was “A” and the “INCREASE IN NEURITE NUMBER” value is on record as “A”. The compound further came in with an EC50 in assay [2] of 1 to 10 µM. Further, the IC50 in assay [3] lay within 0.01 to 0.1 µM. Besides, the IC50 in assay [4] lay within 0.101 to 1 µM.
With `COc1ccc2c3c([nH]c2c1)CCN1CCC[C@H]1C3` [Compound 25, (S)-9-methoxy-1,2,3,5,6,7,12,12a-octahydropyrrolo[1′,2′:1,7]azepino[4,5-b]indole], in assay [1], the “INCREASE IN NEURITE BRANCHING” value is listed as “A”, the “INCREASE IN NEURITE LENGTH” value is recorded as “A” and the “INCREASE IN NEURITE NUMBER” value is on record as “A”. In assay [2], this compound yielded a 50% effective concentration (EC50) greater than 10 µM. Moreover, the IC50 in assay [3] fell in the range of 0.101 to 1 µM. Further, in assay [4], the IC50 is greater than 10 µM.

The values are drawn from US20260176253A1 (priority 2021, published 2026).
